This is an account of results in patent publication US4518789A, “Phenyl alpha-acyloxyacetamide derivatives and their therapeutic use” (priority 1983, dated 1985).

Data set [1] relates to Eczemas, and Other Pruritic Disorders. The data set can be described thus: Topical anti-pruritic effect in patients with pruritic disorders. The data set is classed as in vivo, human.
Source text: Patients with various kinds of pruritic disorders participated in this study. The cases included atopic eczema, patchy eczema, chronic eczema of the hands, lichen simplex chronicus, contact allergic eczema, pruritus of the aged, pruritus of hepatic origin, pruritus ani, pruritus vulvae, scalp pruritus and pruritus of other disorders such as mycosis fungoides, psoriasis and pityriasis rubra pilaris.
Therapeutic compositions containing phenyl-alpha-acyloxyacetamides at 2 to 5% concentrations in cream, ointment, lotion or solution were prepared according to the Examples. The medicinal compositions were topically applied by the patient in an amount sufficient to cover the itching area of skin. Applications were made one to two times daily or as frequently as necessary and without occlusive dressings.
Two parameters have been used to compare degrees of anti-pruritic effect of phenyl-alpha-acyloxyacetamides. The first parameter is whether the relief of itching is complete (2+) or incomplete (1+). The second parameter is the number of hours the patient stays free of pruritus after the initial anti-pruritic effect. […] Therefore, the overall anti-pruritic effect of a compound may range from 2+ to 4+. […] 4+ for complete relief and lasting for more than 8 hours.
The test system of data set [2] is calming or sedative effects. The data set can be described thus: Tranquilizing effect, oral administration in dogs. Format: in vivo. The note with it: for tranquilizing / sedative effect: test compounds 5 to 10 mg per kg. How it is done:
Hairless mice, white hairy mice and dogs were used in these studies.
Three dogs weighing between 10 to 20 kg were given orally N-phenethyl phenyl-alpha-acetoxyacetamide or N-ethyl phenyl-alpha-acetoxyacetamide in gelating capsules at doses of 5 to 10 mg per kg.

Data set [3] concerns itch provoked by papain or histamine dihydrochloride. Kind of data set: Anti-pruritic effect on normal human skin (papain or histamine induced itch). Format: in vivo. The note with it: 2 to 5% topical, normal human adult volunteers. The procedure: Itch provoking pruritic compositions were prepared as follows: papain 0.5% solution was prepared by dissolving papain 50 mg in 10 ml of saline, and histamine 0.2% solution was prepared by dissolving histamine dihydrochloride 20 mg in 10 ml of saline. Itching was provoked or induced as follows: a pruritic composition in a volume of 0.05 ml containing papain or histamine dihydrochloride as a pruritic agent was topically applied on the flexor forearm of normal human adult volunteers and the skin site was gently pricked rapidly through the solution with a 26-gauge needle to the level of the papillary dermis as described by Bernstein et al. (J. E. Bernstein, R. M. Swift, K. Soltani and A. L. Lorincz: Antipruritic Effect of an Opiate Antagonist, Naloxone Hydrochloride in Journal of Investigative Dermatology 78, 82-83, 1982). This technique provoked or induced itch sensation at the test skin site within a few minutes following the topical application of the pruritic composition. After itch sensation had been induced a composition containing 2 to 5% N-ethyl phenyl-alpha-acetoxyacetamide, N-phenethyl phenyl-alpha-acetoxyacetamide or other phenyl-alpha-acyloxyacetamide derivatives of the instant invention was topically applied on the pruritic skin site. The vehicle alone cream containing no active ingredient was used as a control.

[4] abbreviates: first category compounds, 2 to 5%.
[5] abbreviates: intermediate and related compounds.

Structures are written as SMILES.

As to `CCNC(=O)C(OC(=O)Cc1ccccc1)c1ccccc1` (stereo not drawn) [N-ethyl phenyl-alpha-phenylacetoxyacetamide], the “Anti-pruritic Effect” value in data set [1] (setting [4]) is 4+ (complete relief and lasting for more than 8 hours).

Turning to `CC(=O)OC(C(=O)NCc1cccnc1)c1ccccc1` (stereo not drawn) [N-3'-picolyl phenyl-alpha-acetoxyacetamide], in data set [1] (setting [5]), the “Anti-pruritic Effect” value is listed as 3+. As for `COc1ccc(CCNC(=O)C(OC(C)=O)c2ccccc2)cc1OC` (stereo not drawn) [N-(3,4 -dimethoxyphenethyl)phenyl-alpha-acetoxyacetamide], in data set [1] (setting [4]), the “Anti-pruritic Effect” value was 4+ (complete relief and lasting for more than 8 hours).

Consider `CCN(CC)C(=O)C(OC(C)=O)c1ccccc1` (stereo not drawn) [N,N-diethyl phenyl-alpha-acetoxyacetamide], for which the “Anti-pruritic Effect” value in data set [1] (setting [4]) is 4+ (complete relief and lasting for more than 8 hours). On to `CC(=O)OC(C(=O)NC(C)C)c1ccccc1` (stereo not drawn) [N-isopropyl phenyl-alpha-acetoxyacetamide], for which the “Anti-pruritic Effect” value in data set [1] (setting [4]) is 3+. Consider `CN(C)CCOC(c1ccccc1)c1ccccc1` [Benadryl], for which, in data set [2], the “soporific or drowsy effects” value is “soporific and drowsy effects”; the “tranquilizing / sedative effect” value is listed as “substantial sedative effects”. On to `CNC(=O)C(OC(C)=O)c1ccccc1` (stereo not drawn) [N-methyl phenyl alpha-acetoxyacetamide], for which the “Anti-pruritic Effect” value in data set [1] (setting [4]) was 3+.

Regarding `CC(=O)OC(C(=O)NCc1ccc(Cl)cc1)c1ccccc1` (stereo not drawn) [N-p-chlorobenzyl phenyl-alpha-acetoxyacetamide], the “Anti-pruritic Effect” value in data set [1] (setting [4]) is 4+ (complete relief and lasting for more than 8 hours). Same read-out and setting: next, `CC(=O)OC(C(=O)NC(C)(C)C)c1ccccc1` (stereo not drawn) [N-t-butyl phenyl-alpha-acetoxyacetamide]: 4+ (complete relief and lasting for more than 8 hours). For `CCC(=O)OC(C(=O)NCCc1ccccc1)c1ccccc1` (stereo not drawn) [N-phenethyl phenyl-alpha-propionyloxyacetamide], in data set [1] (setting [4]), the “Anti-pruritic Effect” value is listed as 3+. Regarding `CCN(CC)CCNC(=O)C(OC(C)=O)c1ccccc1` (stereo not drawn) [N-(N',N'-diethylaminoethyl)phenyl-alpha-acetoxyacetamide], the “Anti-pruritic Effect” value in data set [1] (setting [5]) is 3+. Consider `CCC(=O)OC(C(=O)NCCc1ccccc1)(c1ccccc1)c1ccccc1` [N-phenethyl diphenyl-alpha-propionyloxyacetamide], for which the “duration of anti-pruritic effect” value in data set [1] (2 to 5%, after initial anti-pruritic effect) is “less than 8 hours”. Moreover, the “relief of itching (in words)” value in data set [1] (all patients tested) is on record as “completely abolished itch sensations”. For the molecule `CC(=O)OC(C(=O)OC(C(=O)NCCc1ccccc1)c1ccccc1)c1ccccc1` (stereo not drawn) [N-phenethyl phenyl-alpha-(o-acetylmandeloyloxy)acetamide], in data set [1] (setting [5]), the “Anti-pruritic Effect” value is on record as 3+. With `COc1ccc(CNC(=O)C(OC(C)=O)c2ccccc2)cc1` (stereo not drawn) [N-p-methoxybenzyl phenyl-alpha-acetoxyacetamide], in data set [1] (setting [4]), the “Anti-pruritic Effect” value was 4+ (complete relief and lasting for more than 8 hours). Regarding `CC(=O)OC(C(=O)NCc1ccccc1)c1ccccc1` (stereo not drawn) [N-benzyl phenyl-alpha-acetoxyacetamide], the “Anti-pruritic Effect” value in data set [1] (setting [4]) was 4+ (complete relief and lasting for more than 8 hours).

Turning to `O=C(NCCc1ccccc1)C(O)c1ccccc1` (stereo not drawn) [N-phenethyl phenyl-alpha-hydroxyacetamide], the “Anti-pruritic Effect” value in data set [1] (setting [5]) is 3+. Regarding `COc1ccc(CCNC(=O)C(OC(C)=O)c2ccccc2)cc1` (stereo not drawn) [N-p-methoxyphenethyl phenyl-alpha-acetoxyacetamide], the “Anti-pruritic Effect” value in data set [1] (setting [4]) was 4+ (complete relief and lasting for more than 8 hours). Turning to `CC(=O)OC(C(=O)NCCSCCO)c1ccccc1` (stereo not drawn) [N-hydroxyethylthioethylphenyl-alpha-acetoxyacetamide], the “Anti-pruritic Effect” value in data set [1] (setting [4]) was 3+. As to `CC(=O)OC(C(=O)N(Cc1ccccc1)Cc1ccccc1)c1ccccc1` (stereo not drawn) [N,N-dibenzyl phenyl-alpha-acetoxyacetamide], in data set [1] (setting [4]), the “Anti-pruritic Effect” value was 3+.

On to `CC(=O)OC(C(=O)NCCc1ccccc1)(c1ccccc1)c1ccccc1` [N-phenethyl diphenyl-alpha-acetoxyacetamide], for which, in data set [3], the Anti-pruritic Effect entry was “substantial anti-pruritic effect”. Consider `CN1C(=O)CN=C(c2ccccc2)c2cc(Cl)ccc21` [Valium], for which, in data set [2], the “soporific or drowsy effects” value is “soporific and drowsy effects”; the “tranquilizing / sedative effect” value is given as “substantial sedative effects”.
